Measured values reported in PubChem BioAssay (NCI).
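Compound exposure: 48 hours, 5 concentrations, 96-well plates. GI50: concentration for 50% inhibition of growth. At the TGI there is no net growth.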

Columns and labels:
Experiment in all cases: inhibition of tumour cell growth, NCI panel, 48 h
SR leukemia = system: SR leukemia
MALME-3M melanoma = system: MALME-3M melanoma
SNB-75 CNS = system: SNB-75 CNS
UACC-257 melanoma = system: UACC-257 melanoma
SF-268 CNS = system: SF-268 CNS
HCT-15 colon = system: HCT-15 colon
T-47D breast = system: T-47D breast
NCI-H460 lung = system: NCI-H460 lung
786-0 renal = system: 786-0 renal
MOLT-4 leukemia = system: MOLT-4 leukemia
COLO 205 colon = system: COLO 205 colon
MDA-MB-435 = system: MDA-MB-435
UO-31 renal = system: UO-31 renal
NCI-H23 lung = system: NCI-H23 lung
CAKI-1 renal = system: CAKI-1 renal
DU-145 prostate = system: DU-145 prostate
IGROV1 ovarian = system: IGROV1 ovarian
TK-10 renal = system: TK-10 renal
SF-295 CNS = system: SF-295 CNS
MDA-MB-231 breast = system: MDA-MB-231 breast
K-562 leukemia = system: K-562 leukemia
HL-60(TB) leukemia = system: HL-60(TB) leukemia
NCI-H522 lung = system: NCI-H522 lung
SNB-19 CNS = system: SNB-19 CNS
HT29 colon = system: HT29 colon
KM12 colon = system: KM12 colon
ACHN renal = system: ACHN renal
HOP-92 NSCLC = system: HOP-92 NSCLC
M14 melanoma = system: M14 melanoma
OVCAR-3 ovarian = system: OVCAR-3 ovarian
NCI/ADR-RES ovarian = system: NCI/ADR-RES ovarian
OVCAR-4 ovarian = system: OVCAR-4 ovarian
U251 CNS = system: U251 CNS
LOX IMVI melanoma = system: LOX IMVI melanoma
A549 NSCLC = system: A549 NSCLC
NCI-H226 lung = system: NCI-H226 lung
SW-620 colon = system: SW-620 colon
HCC-2998 colon = system: HCC-2998 colon
SN12C renal = system: SN12C renal
OVCAR-5 ovarian = system: OVCAR-5 ovarian
SF-539 CNS = system: SF-539 CNS
HS 578T breast = system: HS 578T breast
SK-MEL-5 melanoma = system: SK-MEL-5 melanoma
SK-OV-3 ovarian = system: SK-OV-3 ovarian
BT-549 breast = system: BT-549 breast
SK-MEL-28 melanoma = system: SK-MEL-28 melanoma
CCRF-CEM leukemia = system: CCRF-CEM leukemia
RXF 393 renal = system: RXF 393 renal
HCT-116 colon = system: HCT-116 colon
HOP-62 NSCLC = system: HOP-62 NSCLC
MCF7 breast = system: MCF7 breast
OVCAR-8 ovarian = system: OVCAR-8 ovarian
RPMI-8226 leukemia = system: RPMI-8226 leukemia
UACC-62 melanoma = system: UACC-62 melanoma
SK-MEL-2 melanoma = system: SK-MEL-2 melanoma
PC-3 prostate = system: PC-3 prostate
EKVX NSCLC = system: EKVX NSCLC

SMILES: CCNCc1c(-c2cccc(OC(F)(F)F)c2)[nH]c2ccc(N3CCCC3)cc2c1=O
- GI50 (SR leukemia): 2.71 µM
- TGI (SR leukemia): 12.4 µM
- GI50 (MALME-3M melanoma): 1.99 µM
- TGI (MALME-3M melanoma): 4.41 µM
- GI50 (SNB-75 CNS): 1.42 µM
- TGI (SNB-75 CNS): 8.65 µM
- GI50 (UACC-257 melanoma): 2.35 µM
- TGI (UACC-257 melanoma): 6.08 µM
- GI50 (SF-268 CNS): 6.44 µM
- TGI (SF-268 CNS): 69.2 µM
- GI50 (HCT-15 colon): 3.47 µM
- TGI (HCT-15 colon): 15.9 µM
- GI50 (T-47D breast): 4.78 µM
- TGI (T-47D breast): 59.3 µM
- GI50 (NCI-H460 lung): 3.72 µM
- TGI (NCI-H460 lung): 16.2 µM
- GI50 (786-0 renal): 3.84 µM
- TGI (786-0 renal): 20.6 µM
- GI50 (MOLT-4 leukemia): 3.88 µM
- TGI (MOLT-4 leukemia): 37.3 µM
- GI50 (COLO 205 colon): 2.36 µM
- TGI (COLO 205 colon): 5.74 µM
- GI50 (MDA-MB-435): 1.95 µM
- TGI (MDA-MB-435): 4.32 µM
- GI50 (UO-31 renal): 3.72 µM
- TGI (UO-31 renal): > 100 µM
- GI50 (NCI-H23 lung): 3.15 µM
- TGI (NCI-H23 lung): 10.7 µM
- GI50 (CAKI-1 renal): 3.54 µM
- TGI (CAKI-1 renal): 17.6 µM
- GI50 (DU-145 prostate): 3.8 µM
- TGI (DU-145 prostate): > 100 µM
- GI50 (IGROV1 ovarian): 3.54 µM
- TGI (IGROV1 ovarian): > 100 µM
- GI50 (TK-10 renal): 24.7 µM
- TGI (TK-10 renal): > 100 µM
- GI50 (SF-295 CNS): 1.97 µM
- TGI (SF-295 CNS): 4.06 µM
- GI50 (MDA-MB-231 breast): 2.69 µM
- TGI (MDA-MB-231 breast): 9.28 µM
- GI50 (K-562 leukemia): 3.4 µM
- TGI (K-562 leukemia): > 100 µM
- GI50 (HL-60(TB) leukemia): 2.86 µM
- TGI (HL-60(TB) leukemia): 9.69 µM
- GI50 (NCI-H522 lung): 3.98 µM
- TGI (NCI-H522 lung): 23.1 µM
- GI50 (SNB-19 CNS): 4.03 µM
- TGI (SNB-19 CNS): > 100 µM
- GI50 (HT29 colon): 3.53 µM
- TGI (HT29 colon): > 100 µM
- GI50 (KM12 colon): 3.54 µM
- TGI (KM12 colon): 20.7 µM
- GI50 (ACHN renal): 6.73 µM
- TGI (ACHN renal): > 100 µM
- GI50 (HOP-92 NSCLC): 4.19 µM
- TGI (HOP-92 NSCLC): 38.4 µM
- GI50 (M14 melanoma): 1.95 µM
- TGI (M14 melanoma): 4.28 µM
- GI50 (OVCAR-3 ovarian): 3.45 µM
- TGI (OVCAR-3 ovarian): 20.3 µM
- GI50 (NCI/ADR-RES ovarian): 2.48 µM
- TGI (NCI/ADR-RES ovarian): 7 µM
- GI50 (OVCAR-4 ovarian): 7.77 µM
- TGI (OVCAR-4 ovarian): > 100 µM
- GI50 (U251 CNS): 3.23 µM
- TGI (U251 CNS): 14.8 µM
- GI50 (LOX IMVI melanoma): 3.31 µM
- TGI (LOX IMVI melanoma): 12.5 µM
- GI50 (A549 NSCLC): 5.81 µM
- TGI (A549 NSCLC): > 100 µM
- GI50 (NCI-H226 lung): 9.29 µM
- TGI (NCI-H226 lung): > 100 µM
- GI50 (SW-620 colon): 3.17 µM
- TGI (SW-620 colon): 13.7 µM
- GI50 (HCC-2998 colon): 1.88 µM
- TGI (HCC-2998 colon): 3.58 µM
- GI50 (SN12C renal): 4.12 µM
- TGI (SN12C renal): 46.4 µM
- GI50 (OVCAR-5 ovarian): 3.81 µM
- TGI (OVCAR-5 ovarian): 43.5 µM
- GI50 (SF-539 CNS): 2.24 µM
- TGI (SF-539 CNS): 5.85 µM
- GI50 (HS 578T breast): 1.94 µM
- TGI (HS 578T breast): 6.48 µM
- GI50 (SK-MEL-5 melanoma): 2.09 µM
- TGI (SK-MEL-5 melanoma): 4.42 µM
- GI50 (SK-OV-3 ovarian): 7.19 µM
- TGI (SK-OV-3 ovarian): > 100 µM
- GI50 (BT-549 breast): 4.84 µM
- TGI (BT-549 breast): 44.6 µM
- GI50 (SK-MEL-28 melanoma): 2.25 µM
- TGI (SK-MEL-28 melanoma): 5.51 µM
- GI50 (CCRF-CEM leukemia): 3.52 µM
- TGI (CCRF-CEM leukemia): > 100 µM
- GI50 (RXF 393 renal): 2.39 µM
- TGI (RXF 393 renal): 7.61 µM
- GI50 (HCT-116 colon): 3.46 µM
- TGI (HCT-116 colon): 35.4 µM
- GI50 (HOP-62 NSCLC): 5.63 µM
- TGI (HOP-62 NSCLC): 73.8 µM
- GI50 (MCF7 breast): 2.57 µM
- TGI (MCF7 breast): 11.2 µM
- GI50 (OVCAR-8 ovarian): 5.22 µM
- TGI (OVCAR-8 ovarian): > 100 µM
- GI50 (RPMI-8226 leukemia): 2.44 µM
- TGI (RPMI-8226 leukemia): 6.85 µM
- GI50 (UACC-62 melanoma): 3.47 µM
- TGI (UACC-62 melanoma): 14.3 µM
- GI50 (SK-MEL-2 melanoma): 3.73 µM
- TGI (SK-MEL-2 melanoma): 17.2 µM
- GI50 (PC-3 prostate): 3.87 µM
- TGI (PC-3 prostate): > 100 µM
- GI50 (EKVX NSCLC): 12.3 µM
- TGI (EKVX NSCLC): > 100 µM
